From the kinase profiling compilation of Christmann-Franck et al. (2016)

Tests used:
Test in all cases: KINOMEscan competition binding
Conditions in all cases: compound 10.0 µM; call rule not given here
NLK (human) = NLK (human) (UniProt Q9UBE8)
RPS6KA3 KD1 (human) = RPS6KA3 KD1 (human) (UniProt P51812)
CAMKK2 (human) = CAMKK2 (human) (UniProt Q96RR4)
CAMK2B (human) = CAMK2B (human) (UniProt Q13554)
BMX (human) = BMX (human) (UniProt P51813)
CSNK2A1 (human) = CSNK2A1 (human) (UniProt P68400)
MARK4 (human) = MARK4 (human) (UniProt Q96L34)
MARK4 (human), sequence (Q96L34 whole entry, looked up): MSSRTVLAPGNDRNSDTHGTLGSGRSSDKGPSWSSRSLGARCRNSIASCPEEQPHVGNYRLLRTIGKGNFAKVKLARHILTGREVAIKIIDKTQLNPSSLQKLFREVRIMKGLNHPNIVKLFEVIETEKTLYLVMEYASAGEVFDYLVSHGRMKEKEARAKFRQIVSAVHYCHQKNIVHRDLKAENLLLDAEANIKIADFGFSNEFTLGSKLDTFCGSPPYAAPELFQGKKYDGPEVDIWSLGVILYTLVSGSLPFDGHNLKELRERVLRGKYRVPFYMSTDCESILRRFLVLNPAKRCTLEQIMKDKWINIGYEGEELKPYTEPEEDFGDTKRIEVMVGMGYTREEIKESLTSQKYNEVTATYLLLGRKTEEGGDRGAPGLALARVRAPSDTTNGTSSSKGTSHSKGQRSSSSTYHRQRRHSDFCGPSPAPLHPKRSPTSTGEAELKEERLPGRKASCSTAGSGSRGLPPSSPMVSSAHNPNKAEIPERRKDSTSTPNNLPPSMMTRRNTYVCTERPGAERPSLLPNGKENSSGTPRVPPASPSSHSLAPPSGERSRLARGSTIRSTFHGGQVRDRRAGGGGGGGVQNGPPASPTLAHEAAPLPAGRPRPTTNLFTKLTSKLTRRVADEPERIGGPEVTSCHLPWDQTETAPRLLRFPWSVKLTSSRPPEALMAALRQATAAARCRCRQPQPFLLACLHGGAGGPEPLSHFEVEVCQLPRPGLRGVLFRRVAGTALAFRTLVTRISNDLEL

ACVR1 (human) = ACVR1 (human) (UniProt Q04771)
PRKG1 (human) = PRKG1 (human) (UniProt Q13976)
PHKG1 (human) = PHKG1 (human) (UniProt Q16816)
PHKG1 (human), sequence (Q16816 whole entry, looked up): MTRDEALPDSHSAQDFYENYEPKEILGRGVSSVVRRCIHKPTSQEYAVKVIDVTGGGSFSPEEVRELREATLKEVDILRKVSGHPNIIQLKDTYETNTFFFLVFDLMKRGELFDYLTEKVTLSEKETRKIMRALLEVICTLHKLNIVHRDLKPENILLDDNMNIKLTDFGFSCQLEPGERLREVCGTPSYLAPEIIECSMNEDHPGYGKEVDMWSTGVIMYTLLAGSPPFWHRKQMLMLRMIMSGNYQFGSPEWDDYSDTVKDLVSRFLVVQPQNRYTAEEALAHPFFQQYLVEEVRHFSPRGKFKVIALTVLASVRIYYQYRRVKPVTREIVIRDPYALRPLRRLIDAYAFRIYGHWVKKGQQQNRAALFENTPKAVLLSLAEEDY

FER (human) = FER (human) (UniProt P16591)
STK33 (human) = STK33 (human) (UniProt Q9BYT3)
STK33 (human), sequence (Q9BYT3 whole entry, looked up): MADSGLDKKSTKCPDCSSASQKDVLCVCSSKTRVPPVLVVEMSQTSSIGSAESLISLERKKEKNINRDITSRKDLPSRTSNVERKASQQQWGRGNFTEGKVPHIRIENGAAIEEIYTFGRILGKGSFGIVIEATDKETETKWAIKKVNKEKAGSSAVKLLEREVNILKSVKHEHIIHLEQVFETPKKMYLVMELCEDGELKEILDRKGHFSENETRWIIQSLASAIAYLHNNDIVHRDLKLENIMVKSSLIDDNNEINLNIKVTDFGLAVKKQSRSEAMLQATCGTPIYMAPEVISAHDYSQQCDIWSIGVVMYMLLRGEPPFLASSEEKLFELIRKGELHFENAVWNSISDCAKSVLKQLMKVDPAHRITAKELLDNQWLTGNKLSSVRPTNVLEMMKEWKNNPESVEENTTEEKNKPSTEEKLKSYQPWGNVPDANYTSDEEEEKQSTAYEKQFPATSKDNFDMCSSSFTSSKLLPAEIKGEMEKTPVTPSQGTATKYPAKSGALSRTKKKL

PAK2 (human) = PAK2 (human) (UniProt Q13177)
PAK2 (human), sequence (Q13177 whole entry, looked up): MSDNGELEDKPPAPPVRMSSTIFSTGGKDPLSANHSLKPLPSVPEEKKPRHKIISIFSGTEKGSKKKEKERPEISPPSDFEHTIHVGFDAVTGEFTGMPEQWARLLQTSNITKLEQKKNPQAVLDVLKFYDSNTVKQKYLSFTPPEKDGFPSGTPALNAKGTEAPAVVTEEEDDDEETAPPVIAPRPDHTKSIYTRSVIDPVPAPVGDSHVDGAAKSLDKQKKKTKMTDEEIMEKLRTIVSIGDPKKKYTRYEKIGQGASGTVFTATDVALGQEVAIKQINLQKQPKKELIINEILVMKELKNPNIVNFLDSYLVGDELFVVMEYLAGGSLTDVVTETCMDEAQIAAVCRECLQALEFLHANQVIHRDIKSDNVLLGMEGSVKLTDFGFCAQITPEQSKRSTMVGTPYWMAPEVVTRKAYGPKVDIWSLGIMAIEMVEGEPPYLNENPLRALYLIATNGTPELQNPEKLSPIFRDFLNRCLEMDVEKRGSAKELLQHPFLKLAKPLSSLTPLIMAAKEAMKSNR

CLK1 (human) = CLK1 (human) (UniProt P49759)
CLK1 (human), sequence (P49759 whole entry, looked up): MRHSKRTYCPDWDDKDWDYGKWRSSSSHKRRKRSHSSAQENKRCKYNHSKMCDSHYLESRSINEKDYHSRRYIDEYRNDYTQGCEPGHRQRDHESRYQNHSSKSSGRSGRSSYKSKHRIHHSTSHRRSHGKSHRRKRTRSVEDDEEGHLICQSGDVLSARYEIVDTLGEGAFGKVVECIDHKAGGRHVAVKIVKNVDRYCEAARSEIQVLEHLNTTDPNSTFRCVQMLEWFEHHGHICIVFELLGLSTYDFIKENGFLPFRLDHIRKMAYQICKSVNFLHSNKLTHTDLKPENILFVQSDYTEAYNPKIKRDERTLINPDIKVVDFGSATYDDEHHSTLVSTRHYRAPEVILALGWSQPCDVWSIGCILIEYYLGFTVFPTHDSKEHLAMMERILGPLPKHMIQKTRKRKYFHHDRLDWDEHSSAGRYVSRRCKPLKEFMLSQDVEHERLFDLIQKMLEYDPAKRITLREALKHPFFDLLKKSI

ZAP70 (human) = ZAP70 (human) (UniProt P43403)
ACVR2A (human) = ACVR2A (human) (UniProt P27037)
PAK6 (human) = PAK6 (human) (UniProt Q9NQU5)
CAMK1 (human) = CAMK1 (human) (UniProt Q14012)
AURKB (human) = AURKB (human) (UniProt Q96GD4)
CLK2 (human) = CLK2 (human) (UniProt P49760)
MYLK2 (human) = MYLK2 (human) (UniProt Q9H1R3)
CSNK1D (human) = CSNK1D (human) (UniProt P48730)
RET (human) = RET (human) (UniProt P07949)
MAPK8 (human) = MAPK8 (human) (UniProt P45983)

CAMK2B (human), sequence (Q13554 whole entry, looked up): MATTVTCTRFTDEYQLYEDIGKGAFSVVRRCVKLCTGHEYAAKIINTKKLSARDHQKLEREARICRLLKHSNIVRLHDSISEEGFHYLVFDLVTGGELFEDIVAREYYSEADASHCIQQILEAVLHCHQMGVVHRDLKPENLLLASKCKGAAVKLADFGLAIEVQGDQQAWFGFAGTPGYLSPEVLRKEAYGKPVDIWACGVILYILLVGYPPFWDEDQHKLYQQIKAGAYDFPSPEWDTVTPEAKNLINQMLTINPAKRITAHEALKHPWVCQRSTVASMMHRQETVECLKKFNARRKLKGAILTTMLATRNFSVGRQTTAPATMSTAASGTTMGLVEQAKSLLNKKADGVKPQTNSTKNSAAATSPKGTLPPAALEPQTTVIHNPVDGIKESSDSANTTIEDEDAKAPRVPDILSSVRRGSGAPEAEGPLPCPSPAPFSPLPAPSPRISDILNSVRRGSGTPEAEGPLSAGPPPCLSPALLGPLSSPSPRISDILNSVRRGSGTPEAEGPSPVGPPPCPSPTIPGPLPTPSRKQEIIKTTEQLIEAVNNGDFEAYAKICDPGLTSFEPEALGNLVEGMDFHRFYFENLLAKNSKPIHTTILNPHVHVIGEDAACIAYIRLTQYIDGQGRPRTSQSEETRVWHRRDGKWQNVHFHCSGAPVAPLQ
NLK (human), sequence (Q9UBE8 whole entry, looked up): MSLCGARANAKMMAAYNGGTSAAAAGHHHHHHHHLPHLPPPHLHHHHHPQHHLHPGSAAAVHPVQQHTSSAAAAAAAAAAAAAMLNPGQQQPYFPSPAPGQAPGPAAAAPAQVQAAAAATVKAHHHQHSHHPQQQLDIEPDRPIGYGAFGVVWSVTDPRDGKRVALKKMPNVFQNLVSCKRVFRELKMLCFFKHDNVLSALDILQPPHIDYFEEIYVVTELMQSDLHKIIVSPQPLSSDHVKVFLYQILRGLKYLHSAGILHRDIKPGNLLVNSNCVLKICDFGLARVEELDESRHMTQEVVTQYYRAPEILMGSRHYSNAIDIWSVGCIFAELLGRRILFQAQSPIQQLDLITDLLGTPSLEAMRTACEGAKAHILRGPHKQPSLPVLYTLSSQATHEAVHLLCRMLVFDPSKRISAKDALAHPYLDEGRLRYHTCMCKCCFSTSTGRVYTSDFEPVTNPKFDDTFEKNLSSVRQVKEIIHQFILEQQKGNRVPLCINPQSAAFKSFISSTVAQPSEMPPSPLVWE
CAMKK2 (human), sequence (Q96RR4 whole entry, looked up): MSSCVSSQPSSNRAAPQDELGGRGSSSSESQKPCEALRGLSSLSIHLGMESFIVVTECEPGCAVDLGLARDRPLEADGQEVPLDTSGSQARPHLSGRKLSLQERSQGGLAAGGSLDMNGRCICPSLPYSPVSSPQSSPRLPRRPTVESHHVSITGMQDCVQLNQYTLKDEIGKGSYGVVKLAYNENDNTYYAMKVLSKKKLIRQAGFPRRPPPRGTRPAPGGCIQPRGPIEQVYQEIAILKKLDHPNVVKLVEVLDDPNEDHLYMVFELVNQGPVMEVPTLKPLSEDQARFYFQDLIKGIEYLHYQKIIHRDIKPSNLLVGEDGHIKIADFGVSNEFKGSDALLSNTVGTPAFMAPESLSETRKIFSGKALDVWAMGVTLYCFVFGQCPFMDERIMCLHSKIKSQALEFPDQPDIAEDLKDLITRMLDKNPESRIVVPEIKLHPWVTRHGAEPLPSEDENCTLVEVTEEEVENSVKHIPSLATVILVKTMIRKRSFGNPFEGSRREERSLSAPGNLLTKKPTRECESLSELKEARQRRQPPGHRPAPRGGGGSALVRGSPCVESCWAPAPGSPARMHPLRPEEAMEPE
CSNK2A1 (human), sequence (P68400 whole entry, looked up): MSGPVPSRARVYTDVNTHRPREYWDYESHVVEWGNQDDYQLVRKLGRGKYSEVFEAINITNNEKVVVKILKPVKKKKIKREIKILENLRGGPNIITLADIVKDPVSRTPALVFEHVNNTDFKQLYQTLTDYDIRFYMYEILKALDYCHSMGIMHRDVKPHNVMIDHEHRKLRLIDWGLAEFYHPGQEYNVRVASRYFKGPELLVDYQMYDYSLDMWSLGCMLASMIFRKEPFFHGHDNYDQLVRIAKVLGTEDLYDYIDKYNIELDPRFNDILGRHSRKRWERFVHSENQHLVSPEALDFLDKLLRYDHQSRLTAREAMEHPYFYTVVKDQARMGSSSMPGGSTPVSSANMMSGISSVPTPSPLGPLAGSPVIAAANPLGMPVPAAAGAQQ

Structure (SMILES) | kinase still bound, per cent of control (NLK (human)) | kinase still bound, per cent of control (CAMKK2 (human)) | kinase still bound, per cent of control (CAMK2B (human)) | kinase still bound, per cent of control (CSNK2A1 (human)) | kinase still bound, per cent of control (MARK4 (human)) | kinase still bound, per cent of control (PRKG1 (human)) | kinase still bound, per cent of control (PHKG1 (human)) | kinase still bound, per cent of control (STK33 (human)) | kinase still bound, per cent of control (PAK2 (human)) | kinase still bound, per cent of control (CLK1 (human)) | kinase still bound, per cent of control (ZAP70 (human)) | other results
NC(=O)Nc1sc(-c2ccc(F)cc2)cc1C(N)=O | no effect (inactive) | no effect (inactive) | no effect (inactive) | 0% | no effect (inactive) | no effect (inactive) | no effect (inactive) | no effect (inactive) | no effect (inactive) | no effect (inactive) | no effect (inactive) | kinase still bound, per cent of control (RPS6KA3 KD1 (human)): no effect (inactive); kinase still bound, per cent of control (BMX (human)): no effect (inactive); kinase still bound, per cent of control (ACVR1 (human)): no effect (inactive); kinase still bound, per cent of control (FER (human)): no effect (inactive)
Cc1cc(Nc2cc(N3CCN(C)CC3)nc(Sc3ccc(NC(=O)C4CC4)cc3)n2)[nH]n1 | no effect (inactive) | no effect (inactive) | no effect (inactive) | 0% | no effect (inactive) | no effect (inactive) | no effect (inactive) | no effect (inactive) | no effect (inactive) | no effect (inactive) | no effect (inactive) | kinase still bound, per cent of control (ACVR2A (human)): no effect (inactive); kinase still bound, per cent of control (PAK6 (human)): no effect (inactive); kinase still bound, per cent of control (CAMK1 (human)): no effect (inactive); kinase still bound, per cent of control (AURKB (human)): 0%; kinase still bound, per cent of control (CLK2 (human)): no effect (inactive); kinase still bound, per cent of control (MYLK2 (human)): 0%; kinase still bound, per cent of control (CSNK1D (human)): no effect (inactive); kinase still bound, per cent of control (RET (human)): 0%; kinase still bound, per cent of control (MAPK8 (human)): no effect (inactive)
